Consider 17 compounds from EP4752152A1, “STEROID COMPOUND, AND PREPARATION METHOD THEREFOR AND USE THEREOF” (Cholesgen (Shanghai) Co.Ltd., priority 2023, dated 2025).

The test system of this assay is SREBP pathway. Put plainly: SREBP luciferase reporter gene system (SRE-luciferase assay). It counts as cell-based, human. Particulars: Huh-7/SRE-luc cells, sterol-deficient medium, 0.01-10 µM. In short, it runs like this:
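Huh-7 cells stably carrying LDLR promoter-luciferase plus GFP were treated 16 h in sterol-deficient medium (5% lipoprotein-deficient serum, 2 µM lovastatin, 10 µM mevalonic acid) at 0.01–10 µM. Luciferase/GFP ratio measured as pathway activity; inhibition versus DMSO fitted to a four-parameter model for IC50.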
For orientation: In a reporter assay the amount or activity of a reporter protein is the signal.

The IC50 is the midpoint of a concentration-inhibition curve. `COc1cccc(OC)c1C(O)CCC[C@@H](C)[C@H]1CC[C@H]2[C@H]3[C@H](CC[C@]12C)[C@@]1(C)CC[C@H](O)[C@H](O)[C@@H]1CC3(F)F` (stereo partly drawn) [Compound 116, (1R,3aS,3bS,5aR,6R,7S,9aR,9bS,11aR)-1-[(2R)-6-(2,6-dimethoxyphenyl)-6-hydroxyhexan-2-yl]-4,4-difluoro-9a,11a-dimethylhexadecahydro-1H-cyclopenta[1,2-a]phenanthrene-6,7-diol]: the half-maximal inhibitory concentration (IC50) (Homo sapiens, Huh-7, 16 h) came to 0.177 µM. In the case of `COc1cc(C(O)CCC[C@@H](C)[C@H]2CC[C@H]3[C@H]4[C@H](CC[C@]23C)[C@@]2(C)CC[C@H](O)[C@H](O)[C@@H]2CC4(F)F)cc(F)n1` (single isomer, unassigned) [Compound 248, (1R,3aS,3bS,5aR,6R,7S,9aR,9bS,11aR)-4,4-difluoro-1-[(2R,6R)-6-(6-fluoro-2-methoxypyridin-4-yl)-6-hydroxyhexan-2-yl]-9a,11a-dimethylhexadecahydro-1H-cyclopenta[1,2-a]phenanthrene-6,7-diol or (1R,3aS,3bS,5aR,6R,7S,9aR,9bS,11aR)-4,4-difluoro-1-[(2R,6S)-6-(6-fluoro-2-methoxypyridin-4-yl)-6-hydroxyhexan-2-yl]-9a,11a-dimethylhexadecahydro-1H-cyclopenta[1,2-a]phenanthrene-6,7-diol], the 50% inhibitory concentration (IC50) (16 hours) stood at 0.035 µM. Regarding `COc1ccnc(C[C@@H](O)CCC[C@@H](C)[C@H]2CC[C@H]3[C@H]4[C@H](CC[C@]23C)[C@@]2(C)CC[C@H](O)[C@H](O)[C@@H]2CC4(F)F)c1` (stereo in doubt) [Compound 304, (1R,3aS,3bS,5aR,6R,7S,9aR,9bS,11aR)-4,4-difluoro-1-[(2R,6S)-6-hydroxy-7-(4-methoxypyridin-2-yl)heptan-2-yl]-9a,11a-dimethylhexadecahydro-1H-cyclopenta[1,2-a]phenanthrene-6,7-diol], the IC50 (Homo sapiens, Huh-7, 16 h) amounted to 0.243 µM. Regarding `C[C@H](CCCC(O)c1nc2c(s1)CCOC2)[C@H]1CC[C@H]2[C@H]3[C@H](CC[C@]12C)[C@@]1(C)CC[C@H](O)[C@H](O)[C@@H]1CC3(F)F` (stereo partly drawn) [Compound 257, (1R,3aS,3bS,5aR,6R,7 S,9aR,9bS,11aR)-1-[(2R)-6-(6,7-Dihydro-4H-pyrano[3,4-d][1,3]thiazol-2-yl)-6-hydroxyhexan-2-yl]-4,4-difluoro-9a,11a-dimethylhexadecahyd ro-1H-cyclopenta[1,2-a]phenanthrene-6,7-diol], the IC50 (Homo sapiens, Huh-7, 16 h) amounted to 0.154 µM. Turning to `C[C@H](CCCC(O)c1cccc2cnn(C)c12)[C@H]1CC[C@H]2[C@H]3[C@H](CC[C@]12C)[C@@]1(C)CC[C@H](O)[C@H](O)[C@@H]1CC3(F)F` (single isomer, unassigned) [Compound 243, (1R,3aS,3bS,5aR,6R,7S,9aR,9bS,11aR)-4,4-difluoro-1-[(2R,6S)-6-hydroxy-6-(1-methylindazol-7-yl)hexan-2-yl]-9a,11a-dimethylhexadecahydro-1H-cyclopenta[1,2-a]phenanthrene-6,7-diol or (1R,3aS,3bS,5aR,6R,7S,9aR,9bS,11aR)-4,4-difluoro-1-[(2R,6R)-6-hydroxy-6-(1-methylindazol-7-yl)hexan-2-yl]-9a,11a-dimethylhexadecahydro-1H-cyclopenta[1,2-a]phenanthrene-6,7-diol], the half-maximal inhibitory concentration (IC50) (16 hours) worked out at 0.134 µM.

For `C[C@H](CCCC(O)c1cccc2nnn(C)c12)[C@H]1CC[C@H]2[C@H]3[C@H](CC[C@]12C)[C@@]1(C)CC[C@H](O)[C@H](O)[C@@H]1CC3(F)F` (single isomer, unassigned) [Compound 277, (1R,3aS,3bS,5aR,6R,7S,9aR,9bS,11aR)-4,4-difluoro-1-[(2R,6S)-6-hydroxy-6-(3-methylbenzo[d][1,2,3]triazol-4-yl)hexan-2-yl]-9a,11a-dimethylhexadecahydro-1H-cyclopenta[1,2-a]phenanthrene-6,7-diol or (1R,3aS,3bS,5aR,6R,7S,9aR,9bS,11aR)-4,4-difluoro-1-[(2R,6R)-6-hydroxy-6-(3-methylbenzo[d][1,2,3]triazol-4-yl)hexan-2-yl]-9a,11a-dimethylhexadecahydro-1H-cyclopenta[1,2-a]phenanthrene-6,7-diol], for the setting “Homo sapiens, Huh-7, 16 h”, the IC50 is 0.369 µM. In the case of `C[C@H](CCCC(O)c1cnc2c(c1)OC(F)(F)O2)[C@H]1CC[C@H]2[C@H]3[C@H](CC[C@]12C)[C@@]1(C)CC[C@H](O)[C@H](O)[C@@H]1CC3(F)F` (stereo partly drawn) [Compound 284, (1R,3aS,3bS,5aR,6R,7 S,9aR,9bS,11aR)-1-[(2R)-6-(2,2-Difluoro[1,3]dioxolo[4,5-b]pyridin-6-yl)-6-hydroxyhexan-2-yl]-4,4-difluoro-9a,11a-dimethylhexadecahydro-1H-cyclopenta[1,2-a]phenanthrene-6,7-diol], the half-maximal inhibitory concentration (IC50) (Homo sapiens, Huh-7, 16 h) amounted to 0.309 µM. Turning to `COc1cc(F)nc(OC)c1[C@H](O)CCC[C@@H](C)[C@H]1CC[C@H]2[C@H]3[C@H](CC[C@]12C)[C@@]1(C)CC[C@H](O)[C@H](O)[C@@H]1CC3(F)F` (single isomer, unassigned) [Compound 264], under “Homo sapiens, Huh-7, 16 h”, the IC50 was 0.189 µM. The same measure, in the same setting: the figure for `C[C@H](CCCC(O)c1nnnn1C)[C@H]1CC[C@H]2[C@H]3[C@H](CC[C@]12C)[C@@]1(C)CC[C@H](O)[C@H](O)[C@@H]1CC3(F)F` (stereo partly drawn) [Compound 384, (1R,3aS,3bS,5aR,6R,7 S,9aR,9bS,11aR)-4,4-Difluoro-1-[(2R)-6-hydroxy-6-(1-methyl-1,2,3,4-tetrazol-5-yl)hexan-2-yl]-9a,11a-dimethylhexadecahydro-1H-cyclopenta[1,2-a]phenanthrene-6,7-diol] is 0.185 µM; for `C[C@H](CCC[C@H](O)c1nn(C)c2ccccc12)[C@H]1CC[C@H]2[C@H]3[C@H](CC[C@]12C)[C@@]1(C)CC[C@H](O)[C@H](O)[C@@H]1CC3(F)F` [Compound 323, (1R,3aS,3bS,5aR,6R,7S,9aR,9bS,11aR)-4,4-difluoro-1-[(2R,6S)-6-hydroxy-6-(1-methylindazol-3-yl)hexan-2-yl]-9a,11a-dimethylhexadecahydro-1H-cyclopenta[1,2-a]phenanthrene-6,7-diol] it is 0.262 µM. On the same count and under the same terms, for `C[C@H](CCC[C@H](O)c1cccc2cnn(C)c12)[C@H]1CC[C@H]2C3=C(F)C[C@H]4[C@@H](O)[C@@H](O)CC[C@]4(C)[C@H]3CC[C@]12C` (single isomer, unassigned) [Compound 245] the value was 0.159 µM. Still for that read-out and setting: for `C[C@H](CCC[C@@H](O)c1ccc(F)nc1OCC1COC1)[C@H]1CC[C@H]2[C@H]3[C@H](CC[C@]12C)[C@@]1(C)CC[C@H](O)[C@H](O)[C@@H]1CC3(F)F` [Compound 386, (1R,3aS,3bS,5aR,6R,7S,9aR,9bS,11aR)-4,4-difluoro-1-[(2R,6R)-6-{6-fluoro-2-[(oxetan-3-ylmethyl)oxy]pyridin-3-yl}-6-hydroxyhexan-2-yl]-9a,11a-dimethylhexadecahydro-1H-cyclopenta[1,2-a]phenanthrene-6,7-diol] the value was 0.026 µM.

`COc1cccc(C(O)CCC[C@@H](C)[C@H]2CC[C@H]3[C@@H]4CC[C@H]5[C@@H](O)[C@@H](O)CC[C@]5(C)[C@H]4CC[C@]23C)c1` (stereo partly drawn) [Compound 5, 24-[hydroxy(3-methoxyphenyl)methyl]-5α-cholane-3β,4β-diol]: the IC50 (Homo sapiens, Huh-7, 16 h) amounted to 0.13 µM.

Consider `C[C@H](CCC[C@H](O)c1cc2ccccc2o1)[C@H]1CC[C@H]2[C@H]3[C@H](CC[C@]12C)[C@@]1(C)CC[C@H](O)[C@H](O)[C@@H]1CC3(F)F` [Compound 316, (1R,3aS,3bS,5aR,6R,7S,9aR,9bS,11aR)-1-[(2R,6S)-6-(1-benzofuran-2-yl)-6-hydroxyhexan-2-yl]-4,4-difluoro-9a,11a-dimethylhexadecahydro-1H-cyclopenta[1,2-a]phenanthrene-6,7-diol], for which the IC50 (Homo sapiens, Huh-7, 16 h) is 0.145 µM.

For `COc1nc(C)ccc1C(O)CCC[C@@H](C)[C@H]1CC[C@H]2[C@H]3[C@H](CC[C@]12C)[C@@]1(C)CC[C@H](O)[C@H](O)[C@@H]1CC3(F)F` (single isomer, unassigned) [Compound 217, (1R,3aS,3bS,5aR,6R,7S,9aR,9bS,11aR)-4,4-difluoro-1-[(2R,6S)-6-hydroxy-6-(2-methoxy-6-methylpyridin-3-yl)hexan-2-yl]-9a,11a-dimethylhexadecahydro-1H-cyclopenta[1,2-a]phenanthrene-6,7-diol or (1R,3aS,3bS,5aR,6R,7S,9aR,9bS,11aR)-4,4-difluoro-1-[(2R,6R)-6-hydroxy-6-(2-methoxy-6-methylpyridin-3-yl)hexan-2-yl]-9a,11a-dimethylhexadecahydro-1H-cyclopenta[1,2-a]phenanthrene-6,7-diol], the half-maximal inhibitory concentration (IC50) (Homo sapiens, Huh-7, 16 h) was determined as 0.21 µM. On to `COc1cc(F)nc(OC)c1C(O)CCC[C@@H](C)[C@H]1CC[C@H]2[C@H]3[C@H](CC[C@]12C)[C@@]1(C)CC[C@H](O)[C@H](O)[C@@H]1CC3(F)F` (stereo partly drawn) [Compound 214, (1R,3aS,3bS,5aR,6R,7S,9aR,9bS,11aR)-4,4-difluoro-1-[(2R)-6-(6-fluoro-2,4-dimethoxypyridin-3-yl)-6-hydroxyhexan-2-yl]-9a,11a-dimethylhexadecahydro-1H-cyclopenta[1,2-a]phenanthrene-6,7-diol], for which, where the note is “Homo sapiens, Huh-7, 16 h”, the half-maximal inhibitory concentration (IC50) was determined as 0.183 µM. As to `C[C@H](CCC[C@@H](O)c1cc2ccccc2o1)[C@H]1CC[C@H]2[C@H]3[C@H](CC[C@]12C)[C@@]1(C)CC[C@H](O)[C@H](O)[C@@H]1CC3(F)F` (stereo in doubt) [Compound 317, (1R,3aS,3bS,5aR,6R,7S,9aR,9bS,11aR)-1-[(2R,6R)-6-(1-benzofuran-2-yl)-6-hydroxyhexan-2-yl]-4,4-difluoro-9a,11a-dimethylhexadecahydro-1H-cyclopenta[1,2-a]phenanthrene-6,7-diol], the IC50 (16 hours) amounted to 0.155 µM.
